Test results reported in patent publication US20110245334A1, “USE OF RACEMATES OF PINOCEMBRIN IN PREPARING MEDICAMENTS FOR TREATING STROKE” (CSPC Zhonggi Pharmaceutical Technology (Shijiazhuang) Co. …, priority 2008, published 2011).

What was measured:
Type in all cases: in vivo, rat
tMCAO rats = test: Brain water content, tMCAO time window study; details: 2 hours ischemia and 24 hours reperfusion
Method: 1. In the test, transient middle cerebral artery occlusion (tMCAO) model of rats was adopted. The reperfusion was performed after focal cerebral ischemia for 2 hours so as to inspect therapeutic time window of pinocembrin after focal cerebral ischemia. The rats were administered by pinocembrin racemate (1 mg/kg, 5 mg/kg, intravenous injection) after reperfusion 1 hour, 4 hours and 6 hours (i.e., ischemia 3 hour, 6 hours and 8 hours). (R)-pinocembrin and (S)-pinocembrin (1 mg/kg, 5 mg/kg, intravenous injection) were administered after reperfusion 1 hour and 4 hours (i.e., ischemia 3 hour and 6 hours). The therapeutic time windows of these drugs in focal cerebral ischemia were assessed by studying their effects to neurological symptom scores, infarct sizes and brain water contents during 24 hours after tMCAO.
2.4 Experimental Grouping and Administration • Sham operation group (intravenous injection of normal saline after 3 hours of ischemia); • Model group (intravenous injection of 50 mg/kg hydroxypropyl β-cyclodextrin after 3 hours of ischemia); • Nimodipine group (1 mg/kg, administered after 3 hours of ischemia); • Pinocembrin racemate group (1 mg/kg, 5 mg/kg, administered after 3, 6 and 8 hours of ischemia); • (R)-pinocembrin group (1 mg/kg, 5 mg/kg, administered after 3 and 6 hours of ischemia); • (S)-pinocembrin group (1 mg/kg, 5 mg/kg, administered after 3 and 6 hours of ischemia).
First administration was performed by intravenous injection, and intraperitoneal injection was carried out once 12 hours later with a dose 1.5 times of that for intravenous injection.
The wet weight of each animal's brain was weighted before sliced. After staining, the brain slices were dried at 105° C. for 24 hours, and the dry weight of each animal's brain was weighted. The brain water contents of animals of various groups were compared. Brain water content=(brain wet weight−brain dry weight)/brain wet weight×100%.

MCAO rats [1] = test: Cerebral infarct volume (TTC), MCAO
Method: After neurobehavioral scoring, the rats were put to death by decollation and their brain tissues were removed quickly and put into a refrigerator of −20° C. 10 min later, the brain tissue was moved to an environment of room temperature. After the olfactory bulb, cerebellar and lower brain stem were resected, the brain tissue was cut into five continuous coronal slices with an interval of 2 mm and was cut first on the connection midpoint of brain anterior pole and optic decussation, second on optic decussation, third on funnel handle and fourth on midpoint of funnel handle and thick leaves caudate nucleus. Then the brain slices were quickly put into 5 ml solution containing 4% TTC and 0.1 ml mol·L^−1K2HPO4 and incubated at a constant temperature of 37° C. and in condition of darkness for 30 min. During the time period, the brain slices were tipped every 5 min. […] Every group of brain slices were put in order and photographed. The photographs were processed by an image analysis system and infarct area in every slice was calculated. The infarct volume of every slice was calculated by multiplying the infarct area by the thickness of slice (2 mm), and the infarct volume was the sum of infarct volumes of all slices.
Infarct volume(%)=(volume of surgery-contralateral hemisphere−infarct volume of surgery-homolateral hemisphere)/volume of surgery-contralateral hemisphere×100%

MCAO rats [2] = test: Regional cerebral blood flow (LDF), MCAO
Text: The rats were fixed pronely on the stereotaxic apparatus and subjected to craniotomy. After cleaning for operation visual field, bregma was used as an origin, and a site situated 2 mm behind and 3 mm right to the bregma was selected as a measuring point. The region […] around the site was thinned by a dental drill. In the process, the integrity of dura was maintained and large vessels were avoided. Probe holder was located and fixed.
The rats were supinely fixed on the operating table to carry out MCAO surgery. When a nylon line was inserted in ICA, it was not inserted into intracranial part until LDF value was stable, and blood flow value in 10 min was recorded, and an average value thereof is used as a baseline value of cerebral blood flow. After the MCAO surgery completed, the nylon line was inserted into the intracranial part. When the blood flow value suddenly declined to 20-30% of the baseline value, it was noted that the blood flow in MCA had been blocked. The blood flow value before MCAO in every group was used as a baseline value (100%) of the group. […] LDF value was determined at the same site before the animals was put to death.

plasma fibrinogen = test: Plasma fibrinogen assay (ELISA) in SHRSP; parameters: Plasma fibrinogen: unit not given here; details: SHRSP rats
Method: The mixture was centrifuged for 15 min at 3000 rpm and plasma fibrinogen in liquid supernatant was determined by euzymelinked immunosorbent assay (ELISA).

O=C1CC(c2ccccc2)Oc2cc(O)cc(O)c21 (racemic) [Pinocembrin racemate, pinocembrin racemate]
Brain water content (%) (tMCAO rats; 1 mg/kg, 3 h): 82.20 ± 1.00 %
Brain water content (%) (tMCAO rats; 1 mg/kg, 6 h): 82.44 ± 1.28 %
Brain water content (%) (tMCAO rats; 1 mg/kg, 8 h): 83.26 ± 1.05%
Brain water content (%) (tMCAO rats; 5 mg/kg, 3 h): 82.23 ± 1.42 %
Brain water content (%) (tMCAO rats; 5 mg/kg, 6 h): 81.12 ± 1.42 %
Brain water content (%) (tMCAO rats; 5 mg/kg, 8 h): 83.29 ± 1.79%
Percentage of infarct volume (%) (MCAO rats [1]; 3 mg/kg): 23.1 ± 3.4 %
Percentage of infarct volume (%) (MCAO rats [1]; 3 mg/kg, listed as pinocembrin racemate): 23.1±3.4%
Percentage of infarct volume (%) (MCAO rats [1]; 10 mg/kg): 21.4 ± 2.1 %
Percentage of infarct volume (%) (MCAO rats [1]; 10 mg/kg, listed as pinocembrin racemate): 21.4±2.1%
Percentage of infarct volume (%) (MCAO rats [1]; 30 mg/kg): 14.6 ± 1.1 %
Percentage of infarct volume (%) (MCAO rats [1]; 30 mg/kg, listed as pinocembrin racemate): 14.6±1.1%
regional cerebral blood flow (rCBF) (MCAO rats [2]; time point 10 min, 3 mg/kg): 99.91 ± 7.27 % of baseline value
regional cerebral blood flow (rCBF) (MCAO rats [2]; time point 10 min, 10 mg/kg): 99.91 ± 7.27 % of baseline value
regional cerebral blood flow (rCBF) (MCAO rats [2]; time point 10 min, 30 mg/kg): 99.91 ± 7.27 % of baseline value
regional cerebral blood flow (rCBF) (MCAO rats [2]; time point 20 min, 3 mg/kg): 32.03 ± 6.09 % of baseline value
regional cerebral blood flow (rCBF) (MCAO rats [2]; time point 20 min, 10 mg/kg): 31.45 ± 5.6 % of baseline value
regional cerebral blood flow (rCBF) (MCAO rats [2]; time point 20 min, 30 mg/kg): 37.98 ± 6.87 % of baseline value
regional cerebral blood flow (rCBF) (MCAO rats [2]; time point 30 min, 3 mg/kg): 40.76±6.58 % of baseline value
regional cerebral blood flow (rCBF) (MCAO rats [2]; time point 30 min, 10 mg/kg): 50.09±7.09 % of baseline value
regional cerebral blood flow (rCBF) (MCAO rats [2]; time point 30 min, 30 mg/kg): 53.28±8.03 % of baseline value
regional cerebral blood flow (rCBF) (MCAO rats [2]; time point 40 min, 3 mg/kg): 41.59 ± 6.35 % of baseline value
regional cerebral blood flow (rCBF) (MCAO rats [2]; time point 40 min, 10 mg/kg): 47.72 ± 6.67 % of baseline value
regional cerebral blood flow (rCBF) (MCAO rats [2]; time point 40 min, 30 mg/kg): 54.92 ± 8.58 % of baseline value
regional cerebral blood flow (rCBF) (MCAO rats [2]; time point 50 min, 3 mg/kg): 42.81 ± 5.25 % of baseline value
regional cerebral blood flow (rCBF) (MCAO rats [2]; time point 50 min, 10 mg/kg): 49.98 ± 7.1 % of baseline value
regional cerebral blood flow (rCBF) (MCAO rats [2]; time point 50 min, 30 mg/kg): 55.01 ± 6.25 % of baseline value
regional cerebral blood flow (rCBF) (MCAO rats [2]; time point 60 min, 3 mg/kg): 40.8 ± 7.09 % of baseline value
regional cerebral blood flow (rCBF) (MCAO rats [2]; time point 60 min, 10 mg/kg): 48.99 ± 8.14 % of baseline value
regional cerebral blood flow (rCBF) (MCAO rats [2]; time point 60 min, 30 mg/kg): 57.95 ± 6.09 % of baseline value
regional cerebral blood flow (rCBF) (MCAO rats [2]; time point 70 min, 3 mg/kg): 41.69 ± 8.67 % of baseline value
regional cerebral blood flow (rCBF) (MCAO rats [2]; time point 70 min, 10 mg/kg): 47.01 ± 8.09 % of baseline value
regional cerebral blood flow (rCBF) (MCAO rats [2]; time point 70 min, 30 mg/kg): 53.75 ± 7.09 % of baseline value
regional cerebral blood flow (rCBF) (MCAO rats [2]; time point 80 min, 3 mg/kg): 40.75 ± 7.1 % of baseline value
regional cerebral blood flow (rCBF) (MCAO rats [2]; time point 80 min, 10 mg/kg): 46.07 ± 9.08 % of baseline value
regional cerebral blood flow (rCBF) (MCAO rats [2]; time point 80 min, 30 mg/kg): 54.99 ± 6.67 % of baseline value
regional cerebral blood flow (rCBF) (MCAO rats [2]; time point 90 min, 3 mg/kg): 40.99 ± 8.14 % of baseline value
regional cerebral blood flow (rCBF) (MCAO rats [2]; time point 90 min, 10 mg/kg): 51.85 ± 8.03 % of baseline value
regional cerebral blood flow (rCBF) (MCAO rats [2]; time point 90 min, 30 mg/kg): 55.16 ± 7.1 % of baseline value
regional cerebral blood flow (rCBF) (MCAO rats [2]; time point 100 min, 3 mg/kg): 41.16 ± 6.25 % of baseline value
regional cerebral blood flow (rCBF) (MCAO rats [2]; time point 100 min, 10 mg/kg): 47.12 ± 8.58 % of baseline value
regional cerebral blood flow (rCBF) (MCAO rats [2]; time point 100 min, 30 mg/kg): 56.59 ± 8.14 % of baseline value
regional cerebral blood flow (rCBF) (MCAO rats [2]; time point 110 min, 3 mg/kg): 46.59 ± 7.09 % of baseline value
regional cerebral blood flow (rCBF) (MCAO rats [2]; time point 110 min, 10 mg/kg): 46.89 ± 6.25 % of baseline value
regional cerebral blood flow (rCBF) (MCAO rats [2]; time point 110 min, 30 mg/kg): 57.8 ± 7.27 % of baseline value
regional cerebral blood flow (rCBF) (MCAO rats [2]; time point 120 min, 3 mg/kg): 45.8 ± 5.67 % of baseline value
regional cerebral blood flow (rCBF) (MCAO rats [2]; time point 120 min, 10 mg/kg): 51.8 ± 6.09 % of baseline value
regional cerebral blood flow (rCBF) (MCAO rats [2]; time point 120 min, 30 mg/kg): 64.09 ± 6.09 % of baseline value
regional cerebral blood flow (rCBF) (MCAO rats [2]; time point 130 min, 3 mg/kg): 46.99 ± 6.1 % of baseline value
regional cerebral blood flow (rCBF) (MCAO rats [2]; time point 130 min, 10 mg/kg): 56.59 ± 9.08 % of baseline value
regional cerebral blood flow (rCBF) (MCAO rats [2]; time point 130 min, 30 mg/kg): 61.72 ± 6.58 % of baseline value
regional cerebral blood flow (rCBF) (MCAO rats [2]; time point 140 min, 3 mg/kg): 48.01 ± 7.14 % of baseline value
regional cerebral blood flow (rCBF) (MCAO rats [2]; time point 140 min, 10 mg/kg): 57.8 ± 8.03 % of baseline value
regional cerebral blood flow (rCBF) (MCAO rats [2]; time point 140 min, 30 mg/kg): 64.98 ± 6.35 % of baseline value
regional cerebral blood flow (rCBF) (MCAO rats [2]; time point 150 min, 3 mg/kg): 44.07 ± 7.09 % of baseline value
regional cerebral blood flow (rCBF) (MCAO rats [2]; time point 150 min, 10 mg/kg): 56.99 ± 8.58 % of baseline value
regional cerebral blood flow (rCBF) (MCAO rats [2]; time point 150 min, 30 mg/kg): 63.99 ± 5.25 % of baseline value
regional cerebral blood flow (rCBF) (MCAO rats [2]; time point 160 min, 3 mg/kg): 47.85 ± 6.81 % of baseline value
regional cerebral blood flow (rCBF) (MCAO rats [2]; time point 160 min, 10 mg/kg): 58.01 ± 7.89 % of baseline value
regional cerebral blood flow (rCBF) (MCAO rats [2]; time point 160 min, 30 mg/kg): 57.01 ± 7.09 % of baseline value
regional cerebral blood flow (rCBF) (MCAO rats [2]; time point 170 min, 3 mg/kg): 49.12 ± 6.08 % of baseline value
regional cerebral blood flow (rCBF) (MCAO rats [2]; time point 170 min, 10 mg/kg): 54.07 ± 6.81 % of baseline value
regional cerebral blood flow (rCBF) (MCAO rats [2]; time point 170 min, 30 mg/kg): 65.58 ± 8.67 % of baseline value
regional cerebral blood flow (rCBF) (MCAO rats [2]; time point 180 min, 3 mg/kg): 49.89 ± 7.58 % of baseline value
regional cerebral blood flow (rCBF) (MCAO rats [2]; time point 180 min, 10 mg/kg): 55.9 ± 6.08 % of baseline value
regional cerebral blood flow (rCBF) (MCAO rats [2]; time point 180 min, 30 mg/kg): 62.96 ± 6.81 % of baseline value
Plasma fibrinogen (plasma fibrinogen; 3 mg/kg): 2.79 ± 0.13
Plasma fibrinogen (plasma fibrinogen; 10 mg/kg): 2.62 ± 0.15
Plasma fibrinogen (plasma fibrinogen; 30 mg/kg): 2.56 ± 0.42
